We go through nine compounds from patent US7605179B2, “Napthoquinone derivatives as inhibitors of tau aggregation for the treatment of alzheimer's and related neurodegenerative disorders” (Wista Laboratories Ltd., priority 2001, dated 2009).

The target in data set [1] is tau-tau binding (Homo sapiens, UniProt P10636). In words: Cell-based assay I ('T40/12 kD'), production of the 12 kD fragment. The settings on record: for Ki: apparent KI calculated from T40/12 kD cell data, assumes intracellular tau 500 nM, tau-tau Kd 22 nM; for IC50: concentration at which production of the 12 kD band from full-length tau is reduced to 50%, read-out: B50; for activity as inhibitor of tau-tau aggregation: T40/12 kD cell assay. How it is done:
Production of the 12 kD fragment can be blocked in a dose-dependent manner by tau-aggregation inhibitors. Indeed the quantitation of inhibitory activity of compounds with respect to proteolytic generation of the 12 kD fragment within cells can be described entirely in terms of the same parameters which describe inhibition of tau-tau binding in vitro. That is, extent of proteolytic generation of the 12 kD fragment within cells is determined entirely by the extent to tau-tau binding through the repeat domain. The availability of the relevant proteases within the cell is non-limiting.
The process is described in more detail in prior filed unpublished application GB 0101049.5.
The observed cell data for production of the 12 kD band can be fitted closely (i.e. observed vs. predicted correlation coefficient >0.9), to a standard function describing inhibition of tau-tau binding in vitro. To obtain this fit, two assumptions need to be made, which are consistent with results from other cell-based and in vitro studies: • 1) the intracellular concentration of tau is approximately 500 nM; • 2) the tau-tau binding affinity is 22 nM.
When these assumptions are made, the function: Activity=[tau]([tau]+Kd*(1+[inhibitor]/KI)) can be solved by standard numerical methods to derive a value for apparent KI. Comparison with values observed for tau-tau binding in vitro at a tau concentration of 500 nM, where the Kd value for tau-tau binding is known to be 22 nM confirm that the sole determinant of production of the proteolytically stable core tau unit of the PHF within the cell is simply the extent of tau-tau binding.
A further parameter, B50, has been established in respect of compounds exemplified herein. The B50 value is the determined concentration of test compound used in the cell assay at which relative production of the 12 kD band from full-length tau was reduced to 50% of that observed in the absence of the compound. This provides an indication of the tissue concentration which would be required to achieve the corresponding activity in vivo. In general there is an approximately linear relationship between apparent KI value and B50 value, which can be used to derive the KI value: B50(μM)=0.0217×KI(nM) Cell-based Assay II(‘ssK40/25 kD’)

In another data set the test system is fibroblast cells (3T6). In words: Toxicity in the T40/12 kD cell assay (lactate dehydrogenase kit). It is filed as cell-based. The settings on record: for LD50: cellular LD50, cell numbers after 24 hrs exposure; for Rxindx: therapeutic index, RxIndx=LD50/B50. How it is done: Toxicity of the compounds described above was assessed in the T40/12 kD cell assay used to assess activity. Toxicity was measured by cell numbers after 24 hrs exposure to the compound using a lactate dehydrogenase assay kit TOX-7(Sigma Biosciences) according to the manufacturer's instructions after lysis of remaining cells. Alternatively a kit from Promega UK (CytoTox 96) was used, again according to the manufacturer's instructions.

Data set [2] deals with tau-tau binding. The data set is described as follows: In vitro tau-tau binding assay (WO 96/30766). How it is done: FIG. 5 is a schematic representation of the in vitro aggregation assay of WO 96/30766 in which binding of two truncated units is measured. The species terminating at […] (“a”) is first coated on the ELISA plate (in sodium carbonate buffer: 50 mM, pH 9.6). Next, a second truncated tau species terminating at […] (“e”) is incubated in various buffer conditions. […] This is described in detail in WO 96/30766. Briefly, a fragment of tau corresponding to the core repeat domain, which has been adsorbed to a solid phase substrate, is able to capture soluble full-length tau and bind tau with high affinity. This association confers stability against proteolytic digestion of the aggregated tau molecules. The process is self-propagating, and can be blocked selectively by prototype pharmaceutical agents ([…]., et al. (1996), loc. cit). The assay is shown schematically in FIG. 5.

Another data set addresses tau-tubulin binding (Homo sapiens, UniProt P10636). The data set is described as follows: In vitro tau-tubulin binding. As to conditions: at concentrations up to 500 μM (2500:1 molar ratio with respect to tau).
Data set [3] has as its system tau-tau binding. The settings on record: WO 96/30766 FIGS. 23 and 24; 1 represents binding equivalent to that in the absence of compound; cited from earlier work.
The target of another data set is T1, tau-tau aggregation (Homo sapiens, UniProt P10636).
T1 construct: membrane-targeted tau (sstau190-441, “ssK40”); expressed in transfected cells
The data set is described as follows: Cell-based assay II ('ssK40/25 kD'), proteolytic processing of tau. The settings on record: concentrations of 1-2 μM. An excerpt:
The process is described in more detail in prior filed unpublished application GB 0100119.7. […] These cleavage sites correspond to the known boundaries of the PHF-core domain, indicate that their generation within the cell depends on PHF-like tau aggregation through an antiparallel phase-shifted alignment of the repeat domain.
This is shown schematically in FIG. 7. When expression of full-length tau (T40) is activated under control of an inducible promoter in cells which constitutively express the membrane-targeted ssK40 fragment, T40 is processed proteolytically to give rise to a K40 fragment (N-terminal truncation at ˜αα 185), a K30 fragment (C-terminal truncation ˜αα 390) and a K25 fragment (N-terminal truncation at ˜αα 295).

The next data set deals with cultured CNS neurones. The settings on record: cited from earlier work.
The test system of a further data set is tau protein. The settings on record: 200 μM; cited from earlier work.

tau-tau binding (Homo sapiens, UniProt P10636), sequence (P10636 1-441 isoform P10636-8): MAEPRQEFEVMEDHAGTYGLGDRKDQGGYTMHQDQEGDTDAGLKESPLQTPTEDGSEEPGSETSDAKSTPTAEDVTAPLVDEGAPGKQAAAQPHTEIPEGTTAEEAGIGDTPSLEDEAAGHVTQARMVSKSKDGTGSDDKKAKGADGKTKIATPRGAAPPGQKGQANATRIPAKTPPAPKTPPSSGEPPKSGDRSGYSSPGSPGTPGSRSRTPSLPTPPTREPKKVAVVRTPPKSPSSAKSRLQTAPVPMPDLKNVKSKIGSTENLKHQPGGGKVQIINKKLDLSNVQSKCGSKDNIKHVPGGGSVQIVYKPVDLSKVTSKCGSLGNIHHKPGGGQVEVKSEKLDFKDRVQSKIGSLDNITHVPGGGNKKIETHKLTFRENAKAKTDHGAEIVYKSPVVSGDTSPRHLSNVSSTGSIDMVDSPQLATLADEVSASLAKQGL
T1 sequence (P10636 507-758): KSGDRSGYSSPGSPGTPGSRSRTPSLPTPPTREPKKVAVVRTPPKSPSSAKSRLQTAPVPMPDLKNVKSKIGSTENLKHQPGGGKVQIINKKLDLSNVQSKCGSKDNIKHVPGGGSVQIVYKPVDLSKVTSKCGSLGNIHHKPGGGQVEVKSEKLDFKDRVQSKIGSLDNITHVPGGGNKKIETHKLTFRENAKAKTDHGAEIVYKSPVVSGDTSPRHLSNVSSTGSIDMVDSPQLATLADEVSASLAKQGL
tau-tubulin binding, sequence (P10636 whole entry): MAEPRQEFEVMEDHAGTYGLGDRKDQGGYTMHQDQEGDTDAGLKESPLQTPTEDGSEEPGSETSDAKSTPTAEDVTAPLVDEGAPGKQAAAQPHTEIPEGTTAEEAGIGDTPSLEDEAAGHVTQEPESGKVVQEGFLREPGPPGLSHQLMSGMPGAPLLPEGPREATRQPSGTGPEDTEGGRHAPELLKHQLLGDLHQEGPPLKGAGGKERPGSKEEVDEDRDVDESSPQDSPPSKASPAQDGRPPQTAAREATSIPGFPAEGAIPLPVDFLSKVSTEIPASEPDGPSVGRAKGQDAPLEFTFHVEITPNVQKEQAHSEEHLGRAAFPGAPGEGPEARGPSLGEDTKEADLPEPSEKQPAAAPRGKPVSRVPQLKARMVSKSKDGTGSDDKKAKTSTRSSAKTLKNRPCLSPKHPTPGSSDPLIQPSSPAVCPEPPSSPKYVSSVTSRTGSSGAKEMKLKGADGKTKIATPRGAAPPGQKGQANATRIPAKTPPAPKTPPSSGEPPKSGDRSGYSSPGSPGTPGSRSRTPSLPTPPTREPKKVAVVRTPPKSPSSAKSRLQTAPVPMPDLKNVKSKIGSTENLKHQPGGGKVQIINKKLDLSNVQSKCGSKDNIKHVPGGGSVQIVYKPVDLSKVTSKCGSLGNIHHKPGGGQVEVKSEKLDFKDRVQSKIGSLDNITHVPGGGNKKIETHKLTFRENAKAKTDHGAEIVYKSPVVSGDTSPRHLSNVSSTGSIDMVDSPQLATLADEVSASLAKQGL

In the case of `CC1=C(C)C(=O)c2ccccc2C1=O` [DH10, 2,3-dimethyl-1,4-naphthoquinone], at tau-tau binding [1], the Ki was 221 nM and the IC50 was determined as 4.8 µM. Also, in the data set on fibroblast cells (3T6), the “LD50” value came to 66.71 µM and the Rxindx is reported as 13.91.
In the case of `Cc1cc(OS(=O)(=O)O)c2ccccc2c1OS(=O)(=O)O` [DH13], on tau-tau binding [1], the “activity as inhibitor of tau-tau aggregation” value (shortened to “activity as inhibitor”) is listed as “intermediate in activity”, the Ki is 263 nM and the IC50 was found to be 5.71 µM. Moreover, in the data set with fibroblast cells (3T6), the “LD50” value is 30.90 µM and the Rxindx turned out to be 5.41.
With menaquinone [Compound K2], the Ki on tau-tau binding [2] (for values less than 100 μM, read-out: apparent KI value in vitro) was 942 nM. In addition, at tau-tubulin binding, the “inhibition of tau-tubulin binding in vitro” value is reported as “does not inhibit”. The “ranking value of inhibitory properties” value in the data set with tau-tau binding [3] is 0.674.
As for `CC(=O)Oc1cc(C)c(OC(C)=O)c2ccccc12` [DH9], at tau-tau binding [1], the “activity as inhibitor” value was “highly active”, the Ki was 127 nM and the IC50 came out at 2.76 µM. Also, in the data set on fibroblast cells (3T6), the “LD50” value stood at 13.09 µM and the Rxindx is listed as 4.75.
As to `CC1=CC(=O)c2ccccc2C1=O` [Compound K3, 2-methyl-1,4-naphthoquinone], the “activity in the in vitro assay” value in the data set on tau-tau binding [2] is reported as “did not show activity”. For the same compound, on tau-tau binding [1], the Ki is 128 nM and the IC50 was 2.78 µM. For the same compound, on tau-tau aggregation, the “conversion K40→K25 relative to that seen without K3” value is listed as “about ½” and the “conversion of T40→K25 relative to that seen without K3” value is recorded as “about ¼”. Also, the “conversion of T40→K40 relative to that seen without K3” value on tau-tau aggregation (inferred) is on record as “about ½”. In the data set with fibroblast cells (3T6), the “LD50” value amounted to 44.92 µM and the Rxindx was determined as 16.17. The “ranking value of inhibitory properties” value in the data set with tau-tau binding [3] is recorded as 1.042. Besides, the “survival promoting activity relative to vitamins K1 and K2” value in the data set on cultured CNS neurones (only at 1 μM) is reported as about 10%. Besides, in the data set with tau protein, the “effect on tau protein phosphorylation” value is “prominent dephosphorylation of tau protein”.
As for `CC(C)=CCC1=C(O)C(=O)c2ccccc2C1=O` [DH1], on tau-tau binding [1], the “activity as inhibitor” value is reported as “weak activity”, the Ki is 513 nM and the IC50 is 11.1 µM. In the data set with fibroblast cells (3T6), the “LD50” value was 100.97 µM and the Rxindx is on record as 9.07.
For the compound `CC1=C(C/C=C(\C)CCC[C@H](C)CCC[C@H](C)CCCC(C)C)C(=O)c2ccccc2C1=O` [Compound K1, 2-methyl-3-phytyl-1,4-naphthoquinone], the survival promoting effects entry in the data set on cultured CNS neurones (in the range 10 nM—1 μM) is given as “prominent survival promoting effects”.
`O=C(O)c1cc(O)c2ccccc2c1O` [DH5]: on tau-tau binding [1], the “activity as inhibitor” value is listed as “had activity”, the Ki was 118 nM and the IC50 worked out at 2.56 µM. In the data set with fibroblast cells (3T6), the “LD50” value worked out at 34.29 µM and the Rxindx was found to be 13.39.
The matching figures for `CC(=O)Oc1c(C)c(C)c(OC(C)=O)c2ccccc12` [DH11]: “reduced activity”, 674 nM, 14.6 µM, 12.13 µM and 0.83.
